{"source": "patent US6121252A", "about": "“Phosphinic acid derivatives” (priority 1998, dated 2000)", "key": {"LNCaP tumors [1]": {"system": "LNCaP tumors", "experiment": "In vivo LNCaP tumor model, intratumoral Compound 3", "parameters": "species or system ncr nude male mice", "method": "Ncr nude male mice, age 5 to 6 weeks, were injected in the right flank with 10^7 LNCaP cells in Matrigel™ (0.1 ml total injection volume). When the tumors reached a predetermined size (50 to 60 mm^3), mice were randomly placed into treatment groups of 6 to 8 mice each. […] Controls received 50 μl of 50 mM HEPES intratumorally daily. Tumors were measured twice a week.\n(§1) Response to treatment was monitored in two ways. First, mean tumor volume for each group was presented as tumor:control ratio (% T/C) and these values were compared at one point in time. Second, tumor volume versus time was monitored."}, "LNCaP tumors [2]": {"system": "LNCaP tumors", "experiment": "In vivo LNCaP tumor model, subcutaneous Compound 3", "parameters": "species or system ncr nude male mice", "method": "Ncr nude male mice, age 5 to 6 weeks, were injected in the right flank with 5×10^6 LNCaP cells in Matrigel™ (0.1 ml total injection volume). […] Controls received 50 mM HEPES s.c. daily. Once tumors were palpable they were measured twice a week.\nas §1"}, "alcohol-preferring rats": {"system": "alcohol-preferring rats", "experiment": "Ethanol consumption in alcohol-preferring rats", "assay_type": "in vivo, rat", "details": "for reduction of ethanol consumption: p<0.05", "method": "A within-subject design was used where 2-(phosphonomethyl)pentanedioic acid treatments were tested once per week. Baseline ethanol drinking consisted of the mean of the 3 days prior to testing in which saline injections were given. […] 24 hour water and daily body weights were recorded to assess non-specific drug effects. Results were analyzed using paired t-tests with baseline and test day values serving as the independent variables. Ethanol intake was recorded as amount of solution consumed (mls)."}, "Sprague-Dawley rats": {"system": "Sprague-Dawley rats", "experiment": "Brain injury following MCAO in Sprague-Dawley rats", "assay_type": "in vivo, rat", "details": "for mean total brain infarct volume: then 20 mg/kg/hr IV 4 hours"}, "cortical cell cultures": {"system": "cortical cell cultures", "experiment": "In vitro ischemia assay (KCN/2-DG) in cortical cell cultures", "assay_type": "cell-based, rat"}, "male Long-Evans rats": {"system": "male Long-Evans rats", "experiment": "Nicotine self-administration in male Long-Evans rats", "assay_type": "in vivo, rat", "details": "200 mg/kg", "method": "Male Long-Evans rats were trained to self-administer nicotine on a fixed ratio schedule of reinforcement, as described by Corrigall et al., Psychopharmacology, Vol. 104, No. 2, pp. 171-176 (1991) and Corrigall et al., Psychopharmacology, Vol. 107, Nos. 2-3, pp. 285-289 (1992). In brief, male Long-Evans rats were food deprived for a short period of time (24-48 hours) and trained to press a lever in an operant responding chamber on an FR-1 schedule of food reinforcement. Once trained, each rat was surgically prepared with a chronic intravenous catheter implanted into the jugular vein. The rats were allowed 1 week to recover from surgery.\nAfter 1 week, nicotine self-administration studies were initiated on an FR-1 with a 60 second signaled time-out following each infusion. During time-out, responding on the lever had no scheduled consequence. Nicotine self-administration sessions were 60 minutes in duration. Each nicotine infusion contained 30 μg of nicotine/kg rat and were delivered in a volume of 54 μl over an infusion duration of 0.3 seconds. […] Food intake was monitored during the nicotine self-administration sessions to assess non-specific drug effects."}, "[3]": {"details": "Rattus norvegicus, read-out: % Toxicity"}}, "note": "Where two headings read alike, the source gives them in different places."}
{"compound": "O=C(O)CCC(CP(=O)(O)O)C(=O)O", "note": "(centres unmarked) [Compound 3, 2-(phosphonomethyl)pentanedioic acid]", "values": [{"measurement": "Optimal % T/C", "setting": "LNCaP tumors [1]; 0.025 μg/day intratumoral", "result": 42, "unit": "% T/C"}, {"measurement": "Regressions", "setting": "LNCaP tumors [1]; 0.025 μg/day intratumoral", "result": "1/7"}, {"measurement": "Tumor volume after 42 days of treatment", "setting": "LNCaP tumors [1]; 0.025 μg/day, control 807.3±197.3", "result": "465.7±176", "unit": "mm^3"}, {"measurement": "Optimal % T/C", "setting": "LNCaP tumors [1]; 0.25 μg/day intratumoral", "result": 51, "unit": "% T/C"}, {"measurement": "Regressions", "setting": "LNCaP tumors [1]; 0.25 μg/day intratumoral", "result": "1/7"}, {"measurement": "Optimal % T/C", "setting": "LNCaP tumors [1]; 2.5 μg/day intratumoral", "result": 45, "unit": "% T/C"}, {"measurement": "Regressions", "setting": "LNCaP tumors [1]; 2.5 μg/day intratumoral", "result": "0/7"}, {"measurement": "Optimal % T/C", "setting": "LNCaP tumors [1]; 25.0 μg/day intratumoral", "result": 76, "unit": "% T/C"}, {"measurement": "Regressions", "setting": "LNCaP tumors [1]; 25.0 μg/day intratumoral", "result": "0/7"}, {"measurement": "tumor growth (in words)", "setting": "LNCaP tumors [1]; 0.025, 0.25 and 2.5 μg/day intratumoral", "result": "slowed tumor growth substantially"}, {"measurement": "effect on tumor growth (in words)", "setting": "LNCaP tumors [2]; 1 mg/kg s.c.", "result": "no effect on tumor growth"}, {"measurement": "effect on tumor growth (in words)", "setting": "LNCaP tumors [2]; 3 mg/kg s.c.", "result": "no effect on tumor growth"}, {"measurement": "tumor growth, % of controls", "setting": "LNCaP tumors [2]; 10 mg/kg s.c., day 86, p=0.006", "result": "24 % of controls"}, {"measurement": "effect on tumor growth (in words)", "setting": "LNCaP tumors [2]; 30 mg/kg s.c.", "result": "no effect on tumor growth"}, {"measurement": "reduction of ethanol consumption", "setting": "alcohol-preferring rats; 50 mg/kg IP, 1 hour access", "result": "approximately 25%"}, {"measurement": "ethanol intake", "setting": "alcohol-preferring rats; 50 mg/kg, saline baseline 8.1±0.6", "result": "6.2±0.9", "unit": "mls"}, {"measurement": "reduction of ethanol consumption", "setting": "alcohol-preferring rats; 100 mg/kg IP, 1 hour access", "result": "approximately 25%"}, {"measurement": "ethanol intake", "setting": "alcohol-preferring rats; 100 mg/kg, saline baseline 7.8±0.8", "result": "5.8±0.7", "unit": "mls"}, {"measurement": "effect on ethanol consumption (in words)", "setting": "alcohol-preferring rats; 200 mg/kg IP, 1 hour access", "result": "no effect"}, {"measurement": "ethanol intake", "setting": "alcohol-preferring rats; 200 mg/kg, saline baseline 8.9±0.7", "result": "8±0.5", "unit": "mls"}, {"measurement": "body weights and 24 hour water intakes (in words)", "setting": "alcohol-preferring rats; 50, 100, 200 mg/kg", "result": "not altered at any of the 3 doses"}, {"measurement": "mean total brain infarct volume", "setting": "Sprague-Dawley rats; 100 mg/kg IP 20 minute pre-treatment, p=0.003 vs. vehicle (293±26)", "result": "122±26", "unit": "mm^3"}, {"measurement": "mean total brain infarct volume", "setting": "Sprague-Dawley rats; 100 mg/kg IP 30 minute post-treatment, p=0.2 vs. vehicle (293±26)", "result": "208±40", "unit": "mm^3"}, {"measurement": "mean total brain infarct volume", "setting": "Sprague-Dawley rats; 100 mg/kg IP 60 minute post-treatment, p=0.015 vs. vehicle (293±26)", "result": "125±57", "unit": "mm^3"}, {"measurement": "mean total brain infarct volume", "setting": "Sprague-Dawley rats; 100 mg/kg IP 120 minute post-treatment, p=0.005 vs. vehicle (293±26)", "result": "133±35", "unit": "mm^3"}, {"measurement": "neuroprotection in rat MCAO model (in words)", "setting": "Sprague-Dawley rats; up to 2 hours post-occlusion", "result": "neuroprotective in rat MCAO model of stroke when administered up to 2 hours post-occlusion"}, {"measurement": "ischemic toxicity (in words)", "setting": "cortical cell cultures; 100 pM to 1 μM", "result": "toxicity decreased as the concentration of 2-(phosphonomethyl)pentanedioic acid increased"}, {"measurement": "activity at 0.0001 µM", "setting": "cortical cell cultures; [3]", "result": "66.6 ± 4.38", "unit": "%"}, {"measurement": "activity at 0.001 µM", "setting": "cortical cell cultures; [3]", "result": "42.3 ± 9.34", "unit": "%"}, {"measurement": "activity at 0.01 µM", "setting": "cortical cell cultures; [3]", "result": "33.1 ± 9.62", "unit": "%"}, {"measurement": "activity at 0.1 µM", "setting": "cortical cell cultures; [3]", "result": "30.2 ± 9.43", "unit": "%"}, {"measurement": "activity at 1 µM", "setting": "cortical cell cultures; [3]", "result": "8.56 ± 8.22", "unit": "%"}, {"measurement": "3H-Thymidine Incorporation", "setting": "LNCaP cells; 10 pM", "result": "3078 ± 1006", "unit": "dpm/well"}, {"measurement": "3H-Thymidine Incorporation", "setting": "LNCaP cells; 100 pM", "result": "2062 ± 595", "unit": "dpm/well"}, {"measurement": "3H-Thymidine Incorporation", "setting": "LNCaP cells; 1 nM", "result": "1001 ± 52", "unit": "dpm/well"}, {"measurement": "3H-Thymidine Incorporation", "setting": "LNCaP cells; 10 nM", "result": "664 ± 366", "unit": "dpm/well"}, {"measurement": "cumulative food intake (in words)", "setting": "male Long-Evans rats; 1 hour", "result": "decreased"}, {"measurement": "nicotine self-administration", "setting": "male Long-Evans rats; 1 hour access period, reduced from 23", "result": 5, "unit": "infusions"}]}
